Laboratory results reported in PubChem BioAssay (NCI).
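Cultured in 96-well plates, cells were exposed to test compound for 48 hours across five concentrations. GI50 marks 50% less growth. At the TGI there is no net growth.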

Tests used:
Test in all cases: NCI-60 cell line screen, 48 h
NCI-H522 lung = tested on: NCI-H522 lung
UACC-62 melanoma = tested on: UACC-62 melanoma
SK-MEL-2 melanoma = tested on: SK-MEL-2 melanoma
DU-145 prostate = tested on: DU-145 prostate
SR leukemia = tested on: SR leukemia
OVCAR-4 ovarian = tested on: OVCAR-4 ovarian
SN12C renal = tested on: SN12C renal
MDA-MB-231 breast = tested on: MDA-MB-231 breast
LOX IMVI melanoma = tested on: LOX IMVI melanoma
HL-60(TB) leukemia = tested on: HL-60(TB) leukemia
ACHN renal = tested on: ACHN renal
MOLT-4 leukemia = tested on: MOLT-4 leukemia
CCRF-CEM leukemia = tested on: CCRF-CEM leukemia
A498 renal = tested on: A498 renal
MCF7 breast = tested on: MCF7 breast
UO-31 renal = tested on: UO-31 renal
SF-539 CNS = tested on: SF-539 CNS
MALME-3M melanoma = tested on: MALME-3M melanoma
SK-MEL-28 melanoma = tested on: SK-MEL-28 melanoma
HCT-15 colon = tested on: HCT-15 colon
NCI/ADR-RES ovarian = tested on: NCI/ADR-RES ovarian
COLO 205 colon = tested on: COLO 205 colon
U251 CNS = tested on: U251 CNS
HS 578T breast = tested on: HS 578T breast
M14 melanoma = tested on: M14 melanoma
SNB-75 CNS = tested on: SNB-75 CNS
RPMI-8226 leukemia = tested on: RPMI-8226 leukemia
SK-OV-3 ovarian = tested on: SK-OV-3 ovarian
SF-268 CNS = tested on: SF-268 CNS
NCI-H23 lung = tested on: NCI-H23 lung
RXF 393 renal = tested on: RXF 393 renal
OVCAR-8 ovarian = tested on: OVCAR-8 ovarian
CAKI-1 renal = tested on: CAKI-1 renal
SK-MEL-5 melanoma = tested on: SK-MEL-5 melanoma
HCC-2998 colon = tested on: HCC-2998 colon
TK-10 renal = tested on: TK-10 renal
BT-549 breast = tested on: BT-549 breast
UACC-257 melanoma = tested on: UACC-257 melanoma
K-562 leukemia = tested on: K-562 leukemia
HOP-62 NSCLC = tested on: HOP-62 NSCLC
786-0 renal = tested on: 786-0 renal
HOP-92 NSCLC = tested on: HOP-92 NSCLC
EKVX NSCLC = tested on: EKVX NSCLC
HT29 colon = tested on: HT29 colon
MDA-MB-435 = tested on: MDA-MB-435
OVCAR-5 ovarian = tested on: OVCAR-5 ovarian
SF-295 CNS = tested on: SF-295 CNS
PC-3 prostate = tested on: PC-3 prostate
HCT-116 colon = tested on: HCT-116 colon
NCI-H460 lung = tested on: NCI-H460 lung
NCI-H226 lung = tested on: NCI-H226 lung
A549 NSCLC = tested on: A549 NSCLC
SW-620 colon = tested on: SW-620 colon
OVCAR-3 ovarian = tested on: OVCAR-3 ovarian
IGROV1 ovarian = tested on: IGROV1 ovarian
SNB-19 CNS = tested on: SNB-19 CNS
KM12 colon = tested on: KM12 colon
T-47D breast = tested on: T-47D breast

C=C1C(=O)O[C@@H]2/C=C(/C)C3=CC(=O)[C@@](C)(C[C@H](OC(=O)/C(C)=C\C)[C@@H]12)O3
GI50 (NCI-H522 lung): 0.545 µM
TGI (NCI-H522 lung): 1.21 µM
GI50 (UACC-62 melanoma): 0.748 µM
TGI (UACC-62 melanoma): 2.4 µM
GI50 (SK-MEL-2 melanoma): 1.3 µM
TGI (SK-MEL-2 melanoma): 7.15 µM
GI50 (DU-145 prostate): 1.5 µM
TGI (DU-145 prostate): 5.58 µM
GI50 (SR leukemia): 0.594 µM
TGI (SR leukemia): 3.74 µM
GI50 (OVCAR-4 ovarian): 1.8 µM
TGI (OVCAR-4 ovarian): 6.23 µM
TGI (SN12C renal): 12.5 µM
GI50 (MDA-MB-231 breast): 1.7 µM
TGI (MDA-MB-231 breast): 6.99 µM
GI50 (LOX IMVI melanoma): 0.997 µM
TGI (LOX IMVI melanoma): 4.12 µM
GI50 (HL-60(TB) leukemia): 0.911 µM
TGI (HL-60(TB) leukemia): 2.4 µM
GI50 (ACHN renal): 0.658 µM
TGI (ACHN renal): 1.43 µM
GI50 (MOLT-4 leukemia): 0.857 µM
TGI (MOLT-4 leukemia): 2.88 µM
GI50 (CCRF-CEM leukemia): 0.778 µM
TGI (CCRF-CEM leukemia): 2.92 µM
TGI (A498 renal): 13.3 µM
GI50 (MCF7 breast): 1.12 µM
TGI (MCF7 breast): 5.55 µM
GI50 (UO-31 renal): 0.896 µM
TGI (UO-31 renal): 4 µM
GI50 (SF-539 CNS): 1.44 µM
TGI (SF-539 CNS): 6.36 µM
TGI (MALME-3M melanoma): 5.33 µM
GI50 (SK-MEL-28 melanoma): 1.09 µM
TGI (SK-MEL-28 melanoma): 4.6 µM
GI50 (HCT-15 colon): 0.661 µM
TGI (HCT-15 colon): 1.77 µM
GI50 (NCI/ADR-RES ovarian): 1.06 µM
TGI (NCI/ADR-RES ovarian): > 32.5 µM
GI50 (COLO 205 colon): 0.676 µM
TGI (COLO 205 colon): 1.57 µM
GI50 (U251 CNS): 3.37 µM
TGI (U251 CNS): 8.69 µM
GI50 (HS 578T breast): 8.01 µM
TGI (HS 578T breast): > 32.5 µM
GI50 (M14 melanoma): 1.3 µM
TGI (M14 melanoma): 7.04 µM
GI50 (SNB-75 CNS): 2.37 µM
TGI (SNB-75 CNS): 27.1 µM
GI50 (RPMI-8226 leukemia): 0.867 µM
TGI (RPMI-8226 leukemia): 2.37 µM
GI50 (SK-OV-3 ovarian): 10.5 µM
TGI (SK-OV-3 ovarian): > 32.5 µM
GI50 (SF-268 CNS): 5 µM
TGI (SF-268 CNS): 15.4 µM
GI50 (NCI-H23 lung): 1.52 µM
TGI (NCI-H23 lung): 6.54 µM
GI50 (RXF 393 renal): 0.648 µM
TGI (RXF 393 renal): 1.58 µM
GI50 (OVCAR-8 ovarian): 1 µM
TGI (OVCAR-8 ovarian): 5.89 µM
GI50 (CAKI-1 renal): 1.1 µM
TGI (CAKI-1 renal): 3.8 µM
GI50 (SK-MEL-5 melanoma): 2.41 µM
TGI (SK-MEL-5 melanoma): 9.16 µM
GI50 (HCC-2998 colon): 4.64 µM
TGI (HCC-2998 colon): 9.07 µM
TGI (TK-10 renal): 1.99 µM
TGI (BT-549 breast): 5.34 µM
GI50 (UACC-257 melanoma): 0.685 µM
TGI (UACC-257 melanoma): 4.44 µM
GI50 (K-562 leukemia): 0.955 µM
TGI (K-562 leukemia): 4.79 µM
GI50 (HOP-62 NSCLC): 6.77 µM
TGI (HOP-62 NSCLC): 19.2 µM
GI50 (786-0 renal): 1.13 µM
TGI (786-0 renal): 4.13 µM
GI50 (HOP-92 NSCLC): 1.17 µM
TGI (HOP-92 NSCLC): 5.15 µM
TGI (EKVX NSCLC): 8.36 µM
GI50 (HT29 colon): 1.01 µM
TGI (HT29 colon): 3.71 µM
GI50 (MDA-MB-435): 1.5 µM
TGI (MDA-MB-435): 10.2 µM
GI50 (OVCAR-5 ovarian): 1.67 µM
TGI (OVCAR-5 ovarian): 7.81 µM
GI50 (SF-295 CNS): 5.52 µM
TGI (SF-295 CNS): 13.4 µM
GI50 (PC-3 prostate): 4.1 µM
TGI (PC-3 prostate): 12.1 µM
GI50 (HCT-116 colon): 0.631 µM
TGI (HCT-116 colon): 1.49 µM
GI50 (NCI-H460 lung): 7.04 µM
TGI (NCI-H460 lung): > 32.5 µM
GI50 (NCI-H226 lung): 1.16 µM
TGI (NCI-H226 lung): 4.33 µM
GI50 (A549 NSCLC): 6 µM
TGI (A549 NSCLC): 19.8 µM
GI50 (SW-620 colon): 0.946 µM
TGI (SW-620 colon): 2.61 µM
TGI (OVCAR-3 ovarian): 2.84 µM
GI50 (IGROV1 ovarian): 3.94 µM
TGI (IGROV1 ovarian): 9.17 µM
TGI (SNB-19 CNS): > 32.5 µM

Cc1ccc2c(n1)C(=O)C(Cl)=C(Nc1ccc(C(C)C)cc1)C2=O
GI50 (NCI-H522 lung): 2.02 µM
TGI (NCI-H522 lung): 4.58 µM
GI50 (UACC-62 melanoma): 1.83 µM
TGI (UACC-62 melanoma): 3.77 µM
GI50 (SK-MEL-2 melanoma): 1.81 µM
TGI (SK-MEL-2 melanoma): 3.54 µM
GI50 (DU-145 prostate): 1.73 µM
TGI (DU-145 prostate): 3.24 µM
GI50 (SR leukemia): 0.643 µM
TGI (SR leukemia): 3.48 µM
GI50 (OVCAR-4 ovarian): 1.57 µM
TGI (OVCAR-4 ovarian): 3.15 µM
GI50 (SN12C renal): 2.03 µM
TGI (SN12C renal): 5.38 µM
GI50 (HL-60(TB) leukemia): 1.44 µM
TGI (HL-60(TB) leukemia): 3.5 µM
GI50 (ACHN renal): 1.66 µM
TGI (ACHN renal): 3.09 µM
GI50 (MOLT-4 leukemia): 2.16 µM
TGI (MOLT-4 leukemia): 6.36 µM
GI50 (CCRF-CEM leukemia): 1.9 µM
TGI (CCRF-CEM leukemia): 5.78 µM
GI50 (KM12 colon): 3.25 µM
TGI (KM12 colon): 14 µM
GI50 (A498 renal): 12.5 µM
TGI (A498 renal): 25.2 µM
GI50 (UO-31 renal): 1.23 µM
TGI (UO-31 renal): 2.6 µM
GI50 (SF-539 CNS): 1.62 µM
TGI (SF-539 CNS): 3.07 µM
GI50 (MALME-3M melanoma): 1.65 µM
TGI (MALME-3M melanoma): 3.38 µM
GI50 (SK-MEL-28 melanoma): 1.83 µM
TGI (SK-MEL-28 melanoma): 3.33 µM
GI50 (T-47D breast): 1.18 µM
TGI (T-47D breast): 3.46 µM
GI50 (HCT-15 colon): 1.39 µM
TGI (HCT-15 colon): 3.14 µM
GI50 (NCI/ADR-RES ovarian): 2.53 µM
TGI (NCI/ADR-RES ovarian): 9.2 µM
GI50 (COLO 205 colon): 1.89 µM
TGI (COLO 205 colon): 3.97 µM
GI50 (U251 CNS): 1.76 µM
TGI (U251 CNS): 3.51 µM
GI50 (HS 578T breast): 2.07 µM
TGI (HS 578T breast): 5.96 µM
GI50 (M14 melanoma): 1.7 µM
TGI (M14 melanoma): 3.25 µM
GI50 (SNB-75 CNS): 1.67 µM
TGI (SNB-75 CNS): 5.17 µM
GI50 (RPMI-8226 leukemia): 1.52 µM
TGI (RPMI-8226 leukemia): 4.53 µM
GI50 (SK-OV-3 ovarian): 10.4 µM
TGI (SK-OV-3 ovarian): 22.3 µM
GI50 (SF-268 CNS): 1.76 µM
TGI (SF-268 CNS): 3.86 µM
GI50 (NCI-H23 lung): 1.82 µM
TGI (NCI-H23 lung): 5.05 µM
GI50 (RXF 393 renal): 1.49 µM
TGI (RXF 393 renal): 2.85 µM
GI50 (OVCAR-8 ovarian): 2.59 µM
TGI (OVCAR-8 ovarian): 9.48 µM
GI50 (CAKI-1 renal): 1.53 µM
TGI (CAKI-1 renal): 3.15 µM
GI50 (SK-MEL-5 melanoma): 1.59 µM
TGI (SK-MEL-5 melanoma): 3 µM
GI50 (HCC-2998 colon): 1.99 µM
TGI (HCC-2998 colon): 3.65 µM
GI50 (TK-10 renal): 2.57 µM
TGI (TK-10 renal): 4.13 µM
GI50 (BT-549 breast): 1.51 µM
TGI (BT-549 breast): 2.9 µM
GI50 (UACC-257 melanoma): 1.69 µM
TGI (UACC-257 melanoma): 3.18 µM
GI50 (K-562 leukemia): 0.351 µM
TGI (K-562 leukemia): 1.68 µM
GI50 (HOP-62 NSCLC): 5.34 µM
TGI (HOP-62 NSCLC): 20.1 µM
GI50 (786-0 renal): 2.08 µM
TGI (786-0 renal): 4.5 µM
GI50 (EKVX NSCLC): 1.5 µM
TGI (EKVX NSCLC): 4.18 µM
GI50 (HT29 colon): 2.57 µM
TGI (HT29 colon): 6.44 µM
GI50 (MDA-MB-435): 1.93 µM
TGI (MDA-MB-435): 3.7 µM
GI50 (OVCAR-5 ovarian): 1.74 µM
TGI (OVCAR-5 ovarian): 3.53 µM
GI50 (SF-295 CNS): 3.63 µM
TGI (SF-295 CNS): 13 µM
GI50 (PC-3 prostate): 1.28 µM
TGI (PC-3 prostate): 3.16 µM
GI50 (HCT-116 colon): 1.52 µM
TGI (HCT-116 colon): 3.41 µM
GI50 (NCI-H460 lung): 3.03 µM
TGI (NCI-H460 lung): 13.9 µM
GI50 (NCI-H226 lung): 1.68 µM
TGI (NCI-H226 lung): 4.35 µM
GI50 (A549 NSCLC): 3.26 µM
TGI (A549 NSCLC): 12.4 µM
GI50 (OVCAR-3 ovarian): 1.4 µM
TGI (OVCAR-3 ovarian): 2.77 µM
GI50 (IGROV1 ovarian): 1.29 µM
TGI (IGROV1 ovarian): 2.96 µM
GI50 (SNB-19 CNS): 1.9 µM
TGI (SNB-19 CNS): 4.57 µM
